Measured values reported in PMC10185354, “MyosinA is a druggable target in the widespread protozoan parasite Toxoplasma gondii” (PLOS Biology, 2023).

Assays:
TgMyoA (myosinA) [1] = molecular target: T1, TgMyoA (myosinA) (Toxoplasma gondii, UniProt O00934); experiment: actin-activated ATPase (ADP-Glo) at […] compound; type: biochemical
T1 construct: recombinant TgMyoA heavy chain co-expressed with TgMLC1 and TgELC1 in Sf9 cells; with TgMLC1, TgELC1

TgMyoA (myosinA) [2] = molecular target: T1, TgMyoA (myosinA); experiment: actin-activated ATPase (ADP-Glo) at […] compound; partial inhibition; type: biochemical

| SMILES | actin-activated ATPase (ADP-Glo) at 20 μM compound (TgMyoA (myosinA) [1]) | actin-activated ATPase (ADP-Glo) at 20 μM compound; partial inhibition (TgMyoA (myosinA) [2]) |
| --- | --- | --- |
| Clc1ccc(C2(NCc3c[nH]nc3-c3cccs3)CC2)cc1 [VEST2] | inhibition of both in vitro ATPase activity and parasite growth were retained when the p-OMe substituent in KNX-002 was replaced | – |
| Cc1ccc(C2(NCc3c[nH]nc3-c3cccs3)CC2)cc1 [VEST3] | – | partially retained in analogs containing p-Me (VEST3) or m,p-dichloro (VEST4) substituents |
| Clc1ccc(C2(NCc3c[nH]nc3-c3cccs3)CC2)cc1Cl [VEST4] | – | partially retained in analogs containing p-Me (VEST3) or m,p-dichloro (VEST4) substituents |
